From US10597388B2, “Pyridazinone herbicides” (FMC CORPORATION, priority 2014, dated 2020)

Tests used:
Assay type in all cases: in vivo
[1] = test system: blackgrass (Alopecurus myosuroides); experiment: Test A greenhouse herbicide test, postemergence; conditions: for Blackgrass plant response rating: 0 to 100 scale, 0 is no effect, 100 is complete control
In short: (§1)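 Visual injury score, 0 (no effect) to 100 (complete control), versus untreated controls roughly 10 d after postemergence spray; plants at one- to two-leaf stage, 2 to 10 cm tall, in loam soil and sand, kept in greenhouse.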

[2] = test system: galium (catchweed bedstraw, Galium aparine); experiment: Test A greenhouse herbicide test, postemergence; conditions: for Galium plant response rating: 0 to 100 scale, 0 is no effect, 100 is complete control
In short: as §1

[3] = test system: pigweed (Amaranthus retroflexus); experiment: Test A greenhouse herbicide test, pre- and postemergence
In short: (§2)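 Seeds in loam–sand blend received a preemergence directed soil spray; plants at 2–10 cm, one- to two-leaf stage, received postemergence sprays. Compounds in a non-phytotoxic solvent with surfactant. After about 10 d in a greenhouse, injury rated visually versus untreated controls on a 0–100 scale (100 = complete control).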

[4] = test system: barnyardgrass (Echinochloa crus-galli); experiment: as above
In short: as §2

[5] = test system: ryegrass, Italian (Italian ryegrass, Lolium multiflorum); experiment: as above
In short: as §2

corn (Zea mays) = experiment: as above; conditions: Postemergence; for Corn plant response rating: 0 to 100 scale, 0 is no effect, 100 is complete control
In short: as §2

[6] = test system: ragweed (common ragweed, Ambrosia elatior); experiment: as above
In short: as §2

[7] = test system: foxtail, giant (giant foxtail, Setaria faberii); experiment: as above
In short: as §2

kochia (Kochia scoparia) = experiment: as above
In short: as §2

[8] = test system: wheat (Triticum aestivum); experiment: as above; conditions: Postemergence; for Wheat plant response rating: 0 to 100 scale, 0 is no effect, 100 is complete control
In short: as §2

[9] = test system: sedge, umbrella (small-flower umbrella sedge, Cyperus difformis); experiment: Test B flooded paddy test; conditions: 250 g ai/ha, Flood; visual rating on scale of 0 to 100 where 0 is no effect and 100 is complete control; 13 to 15 d after treatment
In short: (§3)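 Plants grown to the 2-leaf stage. At treatment, pots were flooded to 3 cm above the soil, compound was applied directly to the paddy water, and that depth was held throughout. After 13 to 15 d in the greenhouse, response was rated visually against controls on a 0 (no effect) to 100 (complete control) scale.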

[10] = test system: barnyardgrass (Echinochloa crus-galli); experiment: Test B flooded paddy test; conditions: 250 g ai/ha, Flood; visual rating on scale of 0 to 100 where 0 is no effect and 100 is complete control; 13 to 15 d after treatment
In short: as §3

[11] = test system: ducksalad (Heteranthera limosa); experiment: Test B flooded paddy test; conditions: 250 g ai/ha, Flood; visual rating on scale of 0 to 100 where 0 is no effect and 100 is complete control; 13 to 15 d after treatment
In short: as §3

rice (Oryza sativa) = experiment: Test B flooded paddy test; conditions: 250 g ai/ha, Flood; visual rating on scale of 0 to 100 where 0 is no effect and 100 is complete control; 13 to 15 d after treatment
In short: as §3

[12] = 125 g ai/ha, 0 to 100 scale where 0 is no effect and 100 is complete control
[13] = Postemergence, 125 g ai/ha, 0 to 100 scale where 0 is no effect and 100 is complete control
[14] = Postemergence, 500 g ai/ha, 0 to 100 scale, 0 is no effect, 100 is complete control
[15] = Preemergence, 125 g ai/ha, 0 to 100 scale where 0 is no effect and 100 is complete control
[16] = Preemergence, 500 g ai/ha, 0 to 100 scale, 0 no effect, 100 complete control
[17] = Preemergence, 500 g ai/ha, 0 to 100 scale where 0 is no effect and 100 is complete control
[18] = 500 g ai/ha, visual rating after approx. 10 d, 0 to 100 scale (0 no effect, 100 complete control)
[19] = Postemergence, 500 g ai/ha, visual rating after approx. 10 d, 0 to 100 scale (0 no effect, 100 complete control)

Compound	Plant response rating, Blackgrass [1, 12]	Plant response rating, Galium [2, 12]	Plant response rating, Pigweed [3, 13]	Pigweed plant response rating [3, 15]	Plant response rating, Barnyardgrass [4, 13]	Barnyardgrass plant response rating [4, 15]	Plant response rating, Ryegrass, Italian [5, 13]	Ryegrass, Italian plant response rating [5, 15]	Plant response rating, Corn (corn (Zea mays); [12])	Plant response rating, Ragweed [6, 13]	Ragweed plant response rating [6, 15]	Plant response rating, Foxtail, Giant [7, 13]	Foxtail, Giant plant response rating [7, 15]	Plant response rating, Kochia (kochia (Kochia scoparia); [13])	Kochia plant response rating (kochia (Kochia scoparia); [15])	Plant response rating, Wheat [8, 12]	Plant response rating, Sedge, Umbrella [9]	Plant response rating, Barnyardgrass [10]	Plant response rating, Ducksalad [11]	Plant response rating, Rice (rice (Oryza sativa))	also measured
COc1ccc2sc(C)c(-c3c(O)c(C)nn(C)c3=O)c2c1 [Compound 53]	0	60	60	50	0	0	40	10	0	60	0	0	50	70	50	0	0	0	0	0	Blackgrass plant response rating ([1]; 500 g ai/ha): 30; Galium plant response rating ([2]; 500 g ai/ha): 80; Pigweed plant response rating [3, 14]: 70; Plant response rating, Pigweed [3, 16]: 70; Barnyardgrass plant response rating [4, 14]: 20; Plant response rating, Barnyardgrass [4, 16]: 20; Ryegrass, Italian plant response rating [5, 14]: 70; Plant response rating, Ryegrass, Italian [5, 16]: 50; Corn plant response rating (corn (Zea mays); 500 g ai/ha): 0; Ragweed plant response rating [6, 14]: 70; Plant response rating, Ragweed [6, 16]: 50; Foxtail, Giant plant response rating [7, 14]: 30; Plant response rating, Foxtail, Giant [7, 16]: 50; Kochia plant response rating (kochia (Kochia scoparia); [14]): 80; Plant response rating, Kochia (kochia (Kochia scoparia); [16]): 70; Wheat plant response rating ([8]; 500 g ai/ha): 20
COc1ccc(-c2c(O)c(C)nn(C)c2=O)c2ccccc12 [Compound 58]	20	70	0	0	0	0	60	70	0	0	70	0	0	20	20	0	0	0	0	0	Blackgrass plant response rating ([1]; 500 g ai/ha): 50; Galium plant response rating ([2]; 500 g ai/ha): 100; Pigweed plant response rating [3, 14]: 20; Plant response rating, Pigweed [3, 16]: 20; Barnyardgrass plant response rating [4, 14]: 0; Plant response rating, Barnyardgrass [4, 16]: 20; Ryegrass, Italian plant response rating [5, 14]: 80; Plant response rating, Ryegrass, Italian [5, 16]: 100; Corn plant response rating (corn (Zea mays); 500 g ai/ha): 0; Ragweed plant response rating [6, 14]: 60; Plant response rating, Ragweed [6, 16]: 80; Foxtail, Giant plant response rating [7, 14]: 10; Plant response rating, Foxtail, Giant [7, 16]: 0; Kochia plant response rating (kochia (Kochia scoparia); [14]): 90; Plant response rating, Kochia (kochia (Kochia scoparia); [16]): 80; Wheat plant response rating ([8]; 500 g ai/ha): 20
Cc1nn(C)c(=O)c(-c2c(C)n(C)c3ccc(Cl)cc23)c1O [Compound 74]	20	10	40	30	0	0	0	0	0	0	0	0	0	30	0	0	0	0	0	0	Blackgrass plant response rating ([1]; 500 g ai/ha): 40; Galium plant response rating ([2]; 500 g ai/ha): 20; Pigweed plant response rating [3, 14]: 50; Plant response rating, Pigweed [3, 17]: 50; Barnyardgrass plant response rating [4, 14]: 10; Plant response rating, Barnyardgrass [4, 16]: 0; Ryegrass, Italian plant response rating [5, 14]: 0; Plant response rating, Ryegrass, Italian [5, 17]: 0; Corn plant response rating (corn (Zea mays); 500 g ai/ha): 0; Ragweed plant response rating [6, 14]: 10; Plant response rating, Ragweed [6, 17]: 0; Foxtail, Giant plant response rating [7, 14]: 20; Plant response rating, Foxtail, Giant [7, 17]: 0; Kochia plant response rating (kochia (Kochia scoparia); [14]): 30; Plant response rating, Kochia (kochia (Kochia scoparia); [17]): 0; Wheat plant response rating ([8]; 500 g ai/ha): 0
CCOc1ccc2oc(CC)c(-c3c(O)c(C)nn(C)c3=O)c2c1 [Compound 68]	0	0	0	0	70	10	0	0	0	0	0	10	10	0	0	0	30	0	0	0	Blackgrass plant response rating ([1]; 500 g ai/ha): 10; Galium plant response rating ([2]; 500 g ai/ha): 0; Pigweed plant response rating [3, 14]: 0; Plant response rating, Pigweed [3, 17]: 0; Barnyardgrass plant response rating [4, 14]: 80; Plant response rating, Barnyardgrass [4, 16]: 40; Ryegrass, Italian plant response rating [5, 14]: 0; Plant response rating, Ryegrass, Italian [5, 17]: 0; Corn plant response rating (corn (Zea mays); 500 g ai/ha): 0; Ragweed plant response rating [6, 14]: 0; Plant response rating, Ragweed [6, 17]: 20; Foxtail, Giant plant response rating [7, 14]: 50; Plant response rating, Foxtail, Giant [7, 17]: 50; Kochia plant response rating (kochia (Kochia scoparia); [14]): 0; Plant response rating, Kochia (kochia (Kochia scoparia); [17]): 0; Wheat plant response rating ([8]; 500 g ai/ha): 0
Cc1ccc2c(-c3c(O)c(C)nn(C)c3=O)c(C)ccc2c1 [Compound 110]	20	70	70	90	0	0	70	20	0	60	30	0	10	50	0	0	0	0	0	0	Plant response rating, Blackgrass [1, 18]: 60; Plant response rating, Galium [2, 18]: 90; Plant response rating, Pigweed [3, 19]: 90; Plant response rating, Pigweed [3, 17]: 100; Plant response rating, Barnyardgrass [4, 19]: 10; Plant response rating, Barnyardgrass [4, 17]: 20; Plant response rating, Ryegrass, Italian [5, 19]: 90; Plant response rating, Ryegrass, Italian [5, 17]: 80; Plant response rating, Corn (corn (Zea mays); [18]): 20; Plant response rating, Ragweed [6, 19]: 100; Plant response rating, Ragweed [6, 17]: 40; Plant response rating, Foxtail, Giant [7, 19]: 10; Plant response rating, Foxtail, Giant [7, 17]: 40; Plant response rating, Kochia (kochia (Kochia scoparia); [19]): 70; Plant response rating, Kochia (kochia (Kochia scoparia); [17]): 100; Plant response rating, Wheat [8, 18]: 40
